Earlier results on one molecule are cited in patent US12194143B2, “Mycophenolate oral suspension” (LIQMEDS WORLDWIDE LIMITED, priority 2018, dated 2025).

The structures appear in SMILES notation. Structures can show the parent of a compound that is named as a salt. Where two headings read alike, the source gives them in different places.

On to `C[C@@H](NCCCc1cccc(C(F)(F)F)c1)c1cccc2ccccc12` [Cinacalcet hydrochloride, N-[1-(R)-(−)-(1-naphthyl)ethyl]-3-[3-(trifluoromethyl)phenyl]-1-aminopropane], for which the solubility result (in 95% ethanol) is “soluble”, the solubility entry (in methanol) was “soluble” and the solubility entry (in water) is recorded as “slightly soluble”.
